From the RepoRT retention time repository (doi:10.1016/j.foodchem.2021.129757)

Legend:
Conditions in all cases: stereoisomer not certain
[1] = RP, Waters ACQUITY UPLC HSS T3, 100 × 2.1 mm, 50 °C; A: water + 0.1% formic acid, pH 3; B: 30% methanol + 70% acetonitrile + 0.1% formic acid, pH 3; gradient (min/%B) 0/5 1/8 2/15 3/40 4/70 4.5/100 5/100 6.4/100 6.6/5 6.8/5 7/5
[2] = RP, Phenomenex Luna Omega Polar C18, 100 × 2.1 mm, 1.6 µm, 40 °C, 0.5 mL/min, estimated dead time 0.44 min; A: water + 0.5% formic acid; B: acetonitrile + 0.5% formic acid; gradient (min/%B) 0/5 3/50 3.1/100 5/100 5.1/5 7/5
[3] = RP, Waters ACQUITY UPLC BEH Shield RP18, 150 × 2.1 mm, 1.7 µm, 40 °C, 0.4 mL/min, estimated dead time 0.83 min; A: water + 0.1% formic acid, pH 3; B: acetonitrile + 0.1% formic acid, pH 3; gradient (min/%B) 0/0 30/50 31/100 37/100 37.1/0
[4] = RP, 50 × 0.5 mm, 2.7 µm, 35 °C, 0.01 mL/min, estimated dead time 0.62 min; A: water + 0.1% formic acid, pH 3; B: acetonitrile + 0.1% formic acid, pH 3; gradient (min/%B) 0/5 12/95 14/95 16/5
[5] = RP, Waters ACQUITY UPLC HSS T3, 100 × 2.1 mm, 1.8 µm, 30 °C, 0.4 mL/min, estimated dead time 0.55 min; A: water + 0.1% formic acid, pH 3; B: acetonitrile + 0.1% formic acid, pH 3; gradient (min/%B) 0/0 2/0 15/100 22/100 22.1/0 26/0
[6] = RP, Waters ACQUITY UPLC BEH Shield RP18, 100 × 2.1 mm, 1.7 µm, 30 °C, 0.6 mL/min, estimated dead time 0.37 min; A: water + 0.1% formic acid, pH 3; B: acetonitrile + 0.1% formic acid, pH 3; gradient (min/%B) 0/0 2/0 7/10 22/95 22.1/0 26/0
[7] = RP, Agilent ZORBAX RRHD Eclipse Plus C18, 50 × 2.1 mm, 1.8 µm, 30 °C, 0.4 mL/min, estimated dead time 0.28 min; A: water + 0.1% formic acid, pH 3; B: acetonitrile + 0.1% formic acid, pH 3; gradient (min/%B) 0/1 5/10 8/25 9.1/99 10/99 12/99
[8] = RP, Agilent ZORBAX RRHD Eclipse Plus C18, 50 × 2.1 mm, 1.8 µm, 30 °C, 0.4 mL/min, estimated dead time 0.28 min; A: water + 0.1% formic acid, pH 3; B: acetonitrile + 0.1% formic acid, pH 3; gradient (min/%B) 0/1 5/10 8/25 9.1/99 10/99 12/1
[9] = RP, 150 × 2.1 mm, 2.6 µm, 40 °C, 0.35 mL/min, estimated dead time 0.94 min; A: water + 0.1% formic acid, pH 3; B: acetonitrile + 0.1% formic acid, pH 3; gradient (min/%B) 0/0 1/5 7/45 8.5/80 10.5/80 11/5 12/5
[10] = RP, 150 × 2.1 mm, 2.6 µm, 40 °C, 0.35 mL/min, estimated dead time 0.94 min; A: water + 0.1% formic acid, pH 3; B: acetonitrile + 0.1% formic acid, pH 3; gradient (min/%B) 0/0 1/0 12.5/100 14/100 14.2/0 15/0
[11] = RP, Phenomenex Kinetex EVO C18, 100 × 2.1 mm, 2.6 µm, 40 °C, 0.4 mL/min, estimated dead time 0.55 min; A: water + 0.2% formic acid; B: acetonitrile + 0.2% formic acid; gradient (min/%B) 0/5 0.5/5 7/95 8/95 8.5/5 12/5
[12] = RP, Phenomenex Synergi Hydro-RP, 150 × 2 mm, 4 µm, 30 °C, 0.5 mL/min, estimated dead time 0.6 min; A: water + 0.1% formic acid, pH 3; B: acetonitrile + 0.1% formic acid, pH 3; gradient (min/%B) 0/5 1/5 35/45 40/100 45/100
[13] = RP, Waters ACQUITY UPLC BEH C18, 100 × 2.1 mm, 1.7 µm, 65 °C, 0.4 mL/min, estimated dead time 0.55 min; A: water + 0.1% formic acid, pH 3; B: 80% acetonitrile + 20% acetone + 0.1% formic acid, pH 3; gradient (min/%B) 0/0 5/100 5.5/0 6/0
[14] = RP, Agilent ZORBAX Eclipse XDB-C18, 100 × 2.1 mm, 1.8 µm, 50 °C, 0.4 mL/min, estimated dead time 0.55 min; A: water + 0.1% formic acid, pH 3; B: methanol + 0.1% formic acid, pH 3; gradient (min/%B) 0/2 10/100 14.5/100 14.51/2 16.5/2
[15] = RP, Waters Atlantis T3, 100 × 2.1 mm, 3 µm, 40 °C, 0.3 mL/min, estimated dead time 0.73 min; A: water + 0.1% trifluoroacetic acid, pH 2; B: acetonitrile + 0.1% trifluoroacetic acid, pH 2; gradient (min/%B) 0/10 1/10 6/40 7/50 8/50 14/70 16/80 20/10 25/10
[16] = RP, Agilent InfinityLab Poroshell 120 EC-C18, 100 × 3 mm, 2.7 µm, 25 °C, 0.4 mL/min, estimated dead time 1.1 min; A: water + 0.1% formic acid, pH 3; B: acetonitrile + 0.1% formic acid, pH 3; gradient (min/%B) 0/5 10/25 20/40 24/90 25/90 26/5 30/5
[17] = RP, Phenomenex Luna C18, 150 × 4.6 mm, 3 µm, 25 °C, 0.5 mL/min, estimated dead time 3.2 min; A: water + 0.1% formic acid, pH 3; B: acetonitrile + 0.1% formic acid, pH 3; gradient (min/%B) 0/0 30/30 35/40 50/80 52/80 60/0 65/0
[18] = RP, Phenomenex Synergi Hydro-RP, 250 × 2 mm, 4 µm, 25 °C, 0.2 mL/min, estimated dead time 2.5 min; A: water + 0.1% formic acid, pH 3; B: acetonitrile + 0.1% formic acid, pH 3; gradient (min/%B) 0/0.5 7/0.5 12/12.5 25/16.3 47/35 48/65 50/65 50.1/0.5

Work on `OC1C(O)C(O)C(O)C(O)C1O` (stereo not drawn) [Myo-inositol] yielded an LC retention time [1] of 0.461 min, an LC retention time [2] of 0.54 min and an LC retention time [3] of 1.01 min. It also gave an LC retention time [4] of 2.65 min, an LC retention time [5] of 0.86 min and an LC retention time [6] of 0.58 min.

Work on `O=C(O)CNC(=O)c1ccc(O)cc1` [4-Hydroxyhippuric acid] yielded an LC retention time [7] of 1.63 min, an LC retention time [8] of 3.19 min and an LC retention time [9] of 3.56 min. It also gave an LC retention time [1] of 2.19 min, an LC retention time [10] of 3.82 min and an LC retention time [11] of 1.55 min.

`OC1C(O)C(O)C(O)C(O)C1O` (stereo not drawn) [myo-inositol] showed an LC retention time [12] of 8.53 min.

Work on `COc1cc(C=O)ccc1O` [vanillin] yielded an LC retention time [12] of 8.67 min.

With `Cc1c(C)c2c(c(C)c1O)CCC(C)(CCCC(C)CCCC(C)CCCC(C)C)O2` (stereo not drawn) [alpha-tocopherol] the LC retention time [13] was 5.55 min, the LC retention time [2] was 4.03 min and the LC retention time [14] was 12.5 min. It also gave an LC retention time [4] of 13.2 min, an LC retention time [5] of 15.6 min and an LC retention time [6] of 18.1 min.

For `COc1ccc(C2CC(=O)c3c(O)cc(OC4OC(COC5OC(C)C(O)C(O)C5O)C(O)C(O)C4O)cc3O2)cc1` (stereo not drawn) [Didymin], the LC retention time [15] was 9.08 min.

`O=c1oc2cc(O)ccc2c2ccc(O)cc12` [urolithin A] gave an LC retention time [12] of 21 min.

Compound `C[N+]1(C)CCCC1C(=O)[O-]` (stereo not drawn) [stachydrine (proline betaine)] has an LC retention time [12] of 0.844 min.

`Oc1cccc(O)c1O` [Pyrogallol] gave an LC retention time [9] of 1.87 min, an LC retention time [15] of 1.93 min and an LC retention time [10] of 2.06 min.

With `COc1cc(O)c(CC=C(C)C)c2c1C(=O)CC(c1ccc(O)cc1)O2` (stereo not drawn) [Isoxanthumol] the LC retention time [15] was 11.1 min.

For `OCCc1ccc(O)c(O)c1` [hydroxytyrosol], the LC retention time [12] was 5 min.

`C[n+]1cccc(C(=O)[O-])c1` [trigonelline] gave an LC retention time [12] of 0.731 min.

In the case of `Oc1cc(O)c2c(c1)OC(c1cc(O)c(O)c(O)c1)C(O)C2` (single isomer, unassigned; (-)) [(-)-Epigallocatechin], the LC retention time [9] is reported as 4.07 min, the LC retention time [15] is reported as 2.05 min and the LC retention time [10] is reported as 4.2 min. It also gave an LC retention time [5] of 7.91 min and an LC retention time [16] of 4.79 min.

For `O=c1c(O)c(-c2ccc(OS(=O)(=O)O)c(O)c2)oc2cc(OS(=O)(=O)O)cc(O)c12` [Quercetin disulfate], the LC retention time [17] was 31.6 min and the LC retention time [4] was 4.84 min.

In the case of `CC(C)c1cc2c(c(O)c1O)C1(C(=O)O)CCCC(C)(C)C1CC2` (stereo not drawn) [Carnosic acid], the LC retention time [15] is reported as 15.2 min.

`CCC(CCC(C)C1CCC2C3CC=C4CC(O)CCC4(C)C3CCC12C)C(C)C` (stereo not drawn) [beta-sitosterol] showed an LC retention time [2] of 3.92 min.

`COc1cc(C(=O)O)ccc1O` [vanillic acid] showed an LC retention time [12] of 9.27 min.

With `O=c1c(OC2OC(CO)C(O)C(O)C2O)c(-c2ccc(OC3OC(CO)C(O)C(O)C3O)c(O)c2)oc2cc(O)cc(O)c12` (stereo not drawn) [Quercetin-3,4'-diglucoside] the LC retention time [18] was 29.1 min, the LC retention time [9] was 5.11 min and the LC retention time [15] was 6.4 min. The LC retention time [10] was 5.13 min.

`O=C(O)c1cc(O)c(O)c(O)c1` [gallic acid] showed an LC retention time [12] of 2.13 min.

`COc1cc(O)c(CC=C(C)C)c(O)c1C(=O)C=Cc1ccc(O)cc1` [Xanthohumol] showed an LC retention time [15] of 15.4 min.

For `O=c1oc2cc(O)ccc2c2ccccc12` [urolithin B], the LC retention time [12] was 28.6 min.

`COc1ccc(C=CC(=O)O)cc1OC1OC(C(=O)O)C(O)C(O)C1O` (stereo not drawn) [Isoferulic acid-3-O-glucuronide] showed an LC retention time [18] of 34.4 min, an LC retention time [7] of 6.38 min and an LC retention time [8] of 6.36 min. It also gave an LC retention time [11] of 4.25 min.

`CC(C)c1cc2c(c(O)c1O)C13CCCC(C)(C)C1C(OC3=O)C2O` (stereo not drawn) [Rosmanol] gave an LC retention time [15] of 11.8 min.

Work on `Cn1cnc2c1c(=O)[nH]c(=O)n2C` [theobromine] yielded an LC retention time [12] of 4.64 min.

Compound `O=c1c(O)c(-c2ccc(O)cc2)oc2cc(OC3OC(CO)C(O)C(O)C3O)cc(O)c12` (stereo not drawn) [kaempferol-7-O-glucoside] has an LC retention time [18] of 38.3 min and an LC retention time [15] of 7.37 min.

For `Oc1cc(O)c2c(c1)OC(c1ccc(O)c(O)c1)C(O)C2c1c(O)cc(O)c2c1OC(c1ccc(O)c(O)c1)C(O)C2c1c(O)cc(O)c2c1OC(c1ccc(O)c(O)c1)C(O)C2` (stereo not drawn) [Procyanidin C1], the LC retention time [15] was 6.03 min.

With `CC1CCC2(C(=O)O)CCC3(C)C(=CCC4C5(C)CCC(O)C(C)(C)C5CCC43C)C2C1C` (stereo not drawn) [ursolic acid] the LC retention time [12] was 42 min.

With `C[N+]1(C)CCCC1C(=O)[O-]` (stereo not drawn) [Stachydrine] the LC retention time [1] was 0.545 min, the LC retention time [2] was 0.61 min and the LC retention time [3] was 1.06 min. It also gave an LC retention time [5] of 1.03 min and an LC retention time [6] of 0.65 min.

Work on `O=S(=O)(O)Oc1c(O)cccc1O` [Pyrogallol-2-O-sulfate] yielded an LC retention time [12] of 3.77 min.

For `CC(C)c1cc2c(c(O)c1O)C13CCCC(C)(C)C1CC2OC3=O` (stereo not drawn) [Carnosol], the LC retention time [1] was 4.52 min, the LC retention time [13] was 4.02 min and the LC retention time [15] was 16.3 min.

`CC1OC(OCC2OC(Oc3cc(O)c4c(c3)OC(c3ccc(O)cc3)CC4=O)C(O)C(O)C2O)C(O)C(O)C1O` (stereo not drawn) [Narirutin] showed an LC retention time [15] of 7.65 min.

In the case of `CC(C)=CCc1c(O)cc(O)c2c1OC(c1ccc(O)cc1)CC2=O` (stereo not drawn) [8-prenylnaringenin], the LC retention time [15] is reported as 12.7 min.

For `O=C(O)CCc1cccc(O)c1` [3-(3-hydroxyphenyl)propanoic acid], the LC retention time [18] was 29.5 min, the LC retention time [7] was 7.28 min and the LC retention time [8] was 7.32 min. For the same compound, the LC retention time [5] was 9.17 min and the LC retention time [11] was 4.51 min.

Compound `COc1cc(O)c2c(c1)OC(c1ccc(O)cc1)CC2=O` (stereo not drawn) [Sakuranetin] has an LC retention time [15] of 12.1 min.
